Test results: publication PMC6324581 (Peptide science (Hoboken, N.J.), 2018)
≈ marks a conversion by molar mass, not a printed value. Square brackets hold non-standard residues; d marks the D form. Ends that are not written are not given here. Peptide text beside a SMILES is read from it. Dap = NC[C@H](N)C(=O)O

Columns and labels:
[1] = test system: P. aeruginosa (ATCC:10145); type: cell-based; details: ATCC:10145, 18 h
E. coli D31 = type: cell-based; details: Mueller Hinton broth, ~10^5 CFU/mL, 18 hours at 37°C, OD600, lowest concentration with no visible growth, average of 3 independent samples
[2] = test system: K. pneumonia (ATCC: 700603); type: cell-based, K. pneumoniae; details: 18 h
S. aureus (ATCC: 27660) = type: cell-based; details: ATCC: 27660, 18 h

Compound	MIC [1]	MIC (E. coli D31)	MIC [2]	MIC (S. aureus (ATCC: 27660))
CC[C@H](C)[C@H](NC(=O)CNC(=O)[C@H](CN)NC(=O)[C@H](Cc1ccccc1)NC(=O)[C@H](CC(C)C)NC(=O)[C@H](CN)NC(=O)[C@H](CN)NC(=O)[C@H](C)NC(=O)[C@H](CN)NC(=O)[C@H](CN)NC(=O)[C@H](Cc1ccccc1)NC(=O)CNC(=O)[C@H](CN)NC(=O)[C@H](C)NC(=O)[C@H](Cc1c[nH]c2ccccc12)NC(=O)[C@@H](NC(=O)[C@H](CN)NC(=O)[C@@H](NC(=O)[C@H](CC(C)C)NC(=O)[C@H](CN)NC(=O)[C@@H](N)CN)[C@@H](C)CC)C(C)C)C(=O)NCC(=O)O [PBP-X] (H-[Dap][Dap]LI[Dap]VWA[Dap]GF[Dap][Dap]A[Dap][Dap]LF[Dap]GIG-OH)	3.75 µM (≈ 8.02 µg/mL)	1.88 µM (≈ 4.02 µg/mL)	–	–
KKAAKAWAKGAKKAKKLAKGAG [PBP-A]	>15 µM	>15 µM	>15 µM	–
KKLIKVFAKGFKKAKKLWKGIG [PBP-W18]	1.88 µM	–	1.88 µM	0.94 µM
KKLIKVFAKGWKKAKKLFKGIG [PBP-W11]	1.88 µM	–	1.88 µM	0.47 µM
KKLIKVWAKGFKKAKKLFKGIG [PBP]	1.88 µM	0.94 µM	1.88 µM	0.94 µM
